“Also recorded” adds a separate entry of the source.
What was measured:
[1] = in vivo; cited from earlier work
rat intestinal cells = conditions: added to rat intestinal cells / lumen of the intestine; cited from earlier work
gastric emptying = conditions: oral administration of 50-100 mg/kg, rats; cited from earlier work
food preference of dogs = type: in vivo; conditions: food containing 2,500 ppm vs untreated control
Excerpt: During this experience non-encapsulated trans-2-hexenal in combination with other chemicals were applied to feed.

[2] = rats vs human intake of about 350 ug/kg/day; cited from earlier work
[3] = 13 wk, rat, cited from earlier work

CCCCCCCCCCC[C@@H](C[C@@H]1OC(=O)[C@H]1CCCCCC)OC(=O)[C@H](CC(C)C)NC=O [Orlistat, tetrahydrolipstatin]
known side effects [1]: steatorrhea, fecal incontinence, frequent bowel movements and urgency, compromised absorption of fat-soluble vitamins and nutrients, increased appetite and diminished effectiveness over time

CCCCC/C=C/C=C/C=O [trans, trans-2,4-decadienal]
level of CCK in vitro (rat intestinal cells): increased the level of CCK | gastric emptying (gastric emptying): reduced gastric emptying

CCC/C=C/C=O [trans-2-hexenal]
food preference (food preference of dogs): dogs preferred the untreated control | toxic levels in rats relative to normal intake by humans [2]: 30 times | body weight and intake ([3]; 4000 ppm in diet): no significant reduction; also recorded: did not significantly affect feed intake or body weight | changes in hematological parameters or organ weights ([3]; dietary levels 0, 260, 640, 1600 or 4000 ppm): did not induce any changes

From patent US20170105947A1, “Appetite Suppressant Composition” (priority 2015, published 2017)
